In this experiment the target is T1, MMP-8 (catalytic domain, human, recombinant) (Homo sapiens, UniProt P22894).
T1 construct: MMP-8 (catalytic domain, human, recombinant); purchased BIOMOL International
Description: MMP-8 fluorescence-based inhibition assay with and without β-glucosidase. It counts as biochemical. Here is the method:
MMP-9 (catalytic domain, human, recombinant), MMP-8 (catalytic domain, human, recombinant), and the assay kit were purchased from BIOMOL International. The assays were carried out according to the procedure provided with the kit. MMP activity was measured in 96-well plates using a Bio-Tek Flx 800 fluorescent plate reader. The ZBGs and their protected analogs were dissolved in DMSO and diluted in HEPES buffer (50 mM, pH 7.5) to a concentration of 10 mM for 1-2, 40 mM for 3-4, and 1.25 mM for 5-6. Each well contained 20 μL, of MMP-9 (0.45 U/mL), inhibitor (10 μL, of 1-6), 5 μL, of β-glucosidase (1 U/μL) when used, and buffer for a total volume of 99 μL. These were incubated for 1 h at 37° C. […] The reaction was initiated by the addition of 1 μL (400 μM) of the fluorescent substrate (Mca-Pro-Leu-Gly-Leu-Dpa-Ala-Arg-NH2 where Mca=(7-methoxycoumarin-4-yl)-acetyl and Dpa=N-3-(2,4-dinitrophenyl)-L-α-β-diaminopropionyl)) and kinetic activity was measured every minute for 30 min with excitation and emission wavelengths at 335 nm and 405 nm, respectively. Enzyme activity with inhibitor was calculated with respect to the control experiment (no inhibitor present). […]
IC50 values were obtained for compounds 1-8 against MMP-9 and for compounds 7 and 8 against MMP-8. […] Enzyme activity with inhibitor was calculated with respect to the control experiment (no inhibitor present). […]

Molecules are shown by their SMILES.

T1 sequence (P22894 100-262 limits assumed): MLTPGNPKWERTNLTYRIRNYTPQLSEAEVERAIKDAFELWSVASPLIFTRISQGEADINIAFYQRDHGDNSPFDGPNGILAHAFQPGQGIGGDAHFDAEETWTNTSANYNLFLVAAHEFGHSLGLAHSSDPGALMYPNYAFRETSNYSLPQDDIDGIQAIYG

Turning to `O=C(NCc1ccc(-c2ccccc2)cc1)c1cccc(=O)n1O[C@@H]1O[C@H](CO)[C@@H](O)[C@H](O)[C@H]1O` [Compound 8, N-(Biphenyl-4-ylmethyl)-6-oxo-1-(β-D-glucopyranosyloxy)-1,6-dihydropyridine-2-carboxamide], the inhibition at 0.15 µM (150 nM, read-out: inhibition of MMP-8 after activation with β-glucosidase) amounted to 33%. The “increase in activity upon enzymatic activation” value (MMP-8, with vs without β-glucosidase) is above 1000 fold.

The values are drawn from patent US8889638B2, “Stimulus-triggered prodrugs” (The Regents of the University of California, priority 2010, dated 2014).
